In US20050232912A1, “Enzyme phosphorylating ser46 of p53” (priority 2001, published 2005):

System: Human breast cancer cells MCF-7
Assay: Ser46-phosphorylating activity of nuclear extracts from doxorubicin-treated cells, Western blotting with anti-p53-phosphorylated-Ser46 antibodies
Format: cell-based
Details: MCF-7 cells, 3 μM doxorubicin, during 12 hours after treatment, substrate GST-p53
Procedure: Human breast cancer cells MCF-7 (hereinafter called “MCF-7”, ATCC) were cultured in DMEM medium (Sigma) containing 10% fetal bovine serum (GIBCO BRL) on 15 cm^2 dishes (Corning) up to 90% confluent state. These cells were treated with final 3 μM doxorubicin (Sigma, the same to adriamycin) by addition of its aqueous solution to the medium. After allowed to stand in an incubator, the cells were harvested at various time points.
The harvested cells from one dish were suspended and solubilized in 500 μl of cytoplasm extraction buffer (10 mM HEPES pH7.9, 2 mM MgCl2, 0.1 mM EDTA, 0.1 mM EGTA, 1% Nonidet NP-40, DTT 1 mM, Na3VO4 1 mM, NaF 5 mM, PMSF 0.5 mM, KCl 10 mM, leupeptin 5 μg/ml, antipain 5 μg/ml, chymostatin 5 μg/ml, pepstatinA 2 μg/ml). The solbilized cells were centrifuged at 15,000 rpm for 15 min. The pellets obtained were mixed with 100 μl nuclear extraction buffer (10 mM HEPES pH7.9, 2 mM MgCl2, 0.1 mM EDTA, 0.1 mM EGTA, 1% Nonidet NP-40, DTT 1 mM, Na3VO4 1 mM, NaF 5 mM, PMSF 0.5 mM, KCl 10 mM, NaCl 500 mM, leupeptin 5 μg/ml, antipain 5 μg/ml, chymostatin 5 μg/ml, pepstatinA 2 μg/ml), suspended well and centrifuged at 15,000 rpm for 15 min. […]
Next, the enzyme activity of the nuclear extracts was assayed using the antibodies. […] The phosphorylation of GST-p53 was detected in Western blotting probed with anti-p53-phosphorylated-Ser46 antibodies.

SMILES: COc1cccc2c1C(=O)c1c(O)c3c(c(O)c1C2=O)C[C@@](O)(C(=O)CO)C[C@@H]3O[C@H]1C[C@H](N)[C@H](O)[C@H](C)O1 [doxorubicin]
- activation of enzyme phosphorylating Ser46 of p53: greatly induced
